Data taken from BigSolDB 2.1.

CC(=O)Nc1ccc(O)cc1
Details | solubility (mole fraction)
in acetone, 292.95 K | 0.0327
in acetone, 302.85 K | 0.0411
in acetone, 311.95 K | 0.0534
in acetone, 320.65 K | 0.068
in ethanol, 295.15 K | 0.0549
in ethanol, 305.35 K | 0.0662
in ethanol, 314.15 K | 0.0737
in ethanol, 322.15 K | 0.0898
in ethanol, 332.95 K | 0.116
in ethanol, 341.25 K | 0.141
in ethanol, 350.05 K | 0.18
in ethanol, 360.15 K | 0.216
in isopropanol, 293.65 K | 0.0415
in isopropanol, 304.05 K | 0.0509
in isopropanol, 313.05 K | 0.0604
in isopropanol, 320.25 K | 0.0696
in isopropanol, 325.35 K | 0.0787
in isopropanol, 330.25 K | 0.0876
in isopropanol, 336.15 K | 0.105
in isopropanol, 343.45 K | 0.121
in isopropanol, 348.15 K | 0.136
in isopropanol, 353.05 K | 0.152
in isopropanol, 356.15 K | 0.159
in methanol, 293.45 K | 0.0594
in methanol, 303.55 K | 0.073
in methanol, 313.95 K | 0.0906
in methanol, 323.35 K | 0.111
in methanol, 330.95 K | 0.133
in methanol, 341.55 K | 0.175
in methanol, 354.15 K | 0.229
in n-butanol, 293.05 K | 0.0364
in n-butanol, 302.95 K | 0.0439
in n-butanol, 312.55 K | 0.0526
in n-butanol, 323.05 K | 0.0659
in n-butanol, 332.55 K | 0.0792
in n-butanol, 343.65 K | 0.099
in n-butanol, 353.15 K | 0.126
in n-butanol, 362.65 K | 0.152
in n-pentanol, 303.55 K | 0.038
in n-pentanol, 313.85 K | 0.0468
in n-pentanol, 323.65 K | 0.0571
in n-pentanol, 333.65 K | 0.073
in n-pentanol, 343.55 K | 0.0893
in n-pentanol, 353.75 K | 0.108
in n-pentanol, 361.55 K | 0.129
in n-propanol, 293.05 K | 0.0412
in n-propanol, 302.95 K | 0.0501
in n-propanol, 312.55 K | 0.061
in n-propanol, 322.55 K | 0.0735
in n-propanol, 332.25 K | 0.093
in n-propanol, 342.15 K | 0.117
in n-propanol, 351.25 K | 0.142
in n-propanol, 359.15 K | 0.165
